# Results published in the Biogen ADME set (Fang et al. 2023).
# Conditions: for aqueous solubility: pH 6.8
aqueous solubility [µg/mL],MDR1-MDCK efflux ratio,"intrinsic clearance, human liver microsomes [mL/min/kg]","intrinsic clearance, rat liver microsomes [mL/min/kg]","fraction unbound, human plasma","fraction unbound, rat plasma",Structure (SMILES)
7.54,,,,,,Cc1nnc(NC(C2CC2)C2CC2)c(C#N)c1C
42.1,13.9,23.4,928,,,CN1CCC(n2ncc3[nH]c(-c4ccc5ccccc5c4)nc32)CC1
57.7,10.3,≤ 4.74,≤ 10.7,,,CCNC(=O)N1CCc2nc3ccc(F)cn3c(=O)c2C1
34.5,10.9,,405,0.0428,0.176,N#CC[C@H](C1CCCC1)n1cc(-c2ncnc3[nH]ccc23)cn1
55.5,0.716,359,1950,,,COc1ccccc1NC(=O)CN1CCCN(c2nc(C)cs2)CC1
5.17,1.27,11.9,146,,,Cn1c(=O)c2c(nc3n2CCN3Cc2c(F)cccc2Cl)n(C)c1=O
,6.31,36.7,498,,,O=C(Nc1nccs1)[C@@H]1C[C@@H]2CCCC[C@@H]2N1C(=O)c1ccccc1
31,3.58,≤ 4.74,971,,,Cc1cccc(NCCc2cn3c(n2)CCCC3)n1
36.2,0.746,9.35,117,,,O=C(CSc1ccc(F)cc1)N1CCCC1
,0.43,87.6,615,,,O=C1c2ccccc2C(=O)N1CCNc1ccc(F)cc1
18.4,,22.6,3200,,,c1ccc(-n2cnc3cc(NCc4ccccn4)ccc32)cc1
43.3,1.11,22.3,209,,,CN1CCCN(c2nc(C(F)(F)F)nc3cc4c(cc23)OCO4)CC1
23.5,0.509,88.2,316,,,Cc1n[nH]c(-c2c(C)c3cc(F)ccc3n2C)n1
,,22,356,,,COc1ccccc1N1CCN(CCNC(=O)c2ccc(F)cc2)CC1
,19.4,≤ 4.74,≤ 10.7,,,NCCOc1cccc(CC(=O)N2CCC(F)(F)CC2)c1
,0.755,≤ 4.74,21.1,,,Cc1ncccc1NC(=O)OC(C)(C)C
5.35,,5.68,32.4,,,Cc1nn(-c2ccc(F)cc2)c2ncc(C(=O)Nc3nc(C4CC4)cs3)cc12
,,267,512,,,O=[N+]([O-])c1ccc(S(=O)(=O)Nc2cccc(-c3nc4ccccc4s3)c2)cc1
,0.68,7.63,61.4,,,CC(C)(C(=O)c1ccccc1)/[N+]([O-])=C/c1ccc(F)cc1
,,≤ 4.74,20.4,,,Cc1ccncc1NC(=O)Cc1ccc(F)cc1
,,489,1010,,,C=CCNC1=C2C[C@@H](C)C[C@@H](OC)[C@@H](O)[C@@H](C)/C=C(\C)[C@@H](OC(N)=O)[C@@H](OC)/C=C\C=C(/C)C(=O)NC(=CC1=O)C2=O

aqueous solubility [µg/mL],MDR1-MDCK efflux ratio,"intrinsic clearance, human liver microsomes [mL/min/kg]","intrinsic clearance, rat liver microsomes [mL/min/kg]","fraction unbound, human plasma","fraction unbound, rat plasma",Structure (SMILES)
,5.92,6.88,1270,,,O=C(NCC1CCC2(CC1)OCCO2)c1[nH]nc2c1CCCC2
60,3.54,≤ 4.74,≤ 10.7,,,Cc1nc(N2CCN(C)CC2)nc(C)c1NC(=O)C1CCCCC1
32.6,,,,,,CN(C)S(=O)(=O)N(C1CCCC1)C1CC1
73.8,,≤ 4.74,≤ 10.7,,,C#CCN1CCN(C(=O)CCS(C)(=O)=O)CC1
47,2.27,≤ 4.74,≤ 10.7,,,O=C1CN(C(=O)c2ccc(F)cc2)CCN1
41,,≤ 4.74,≤ 10.7,,,Fc1ccc(-c2cc(C3CCNCC3)ccn2)cc1
,,≤ 4.74,≤ 10.7,,,Cc1nc(C)c(C(=O)NCc2ncoc2C)s1
,0.606,31.9,620,,,Fc1ccc(CN2CCCN(c3ccc4nnnn4n3)CC2)cc1
17.1,,197,1070,,,Cc1cccc(NC(=O)c2noc3c2CCCC3)n1
16.1,,,,,,Cc1cccc(Cl)c1-n1c(C)n[nH]c1=O
51.4,0.725,≤ 4.74,39.3,,,CCCc1nc(N2CCc3ccccc3C2)ncc1C(=O)O
16.2,0.792,6.88,16.3,,,Cc1noc([C@@H]2C[C@H](NC(=O)c3ccc(F)cc3)CN2C)n1
61.1,8.45,≤ 4.74,25.3,,,CC(C)(C)NC(=O)c1cncn1C1CCN(c2ccc(-c3nnc(C(F)(F)F)o3)cn2)CC1
,7.8,101,232,0.00355,0.00473,CCn1c(-c2nonc2N)nc2cnc(Oc3cccc(NC(=O)c4ccc(OCCN5CCOCC5)cc4)c3)cc21
83.8,4.87,183,1360,,,NC(=O)C1(Cc2ccc(-c3cccnc3)cc2)CCN(Cc2cccc(Cl)c2)CC1
,28,281,1650,,,O=C(c1cccc(Nc2ncccn2)c1)N1CCOCC(Cc2cccc3ccncc23)C1 (configuration not stated)
32.2,,,,,,CS(=O)(=O)NCCc1ccc2c(c1)OCCO2
,4.21,≤ 4.74,42.3,,,CS(=O)(=O)NC1CCCN(c2nc3ccccc3o2)C1 (configuration not stated)
,133,≤ 4.74,742,,,CC(=O)c1ccccc1-c1cccc(C(=O)NCCCN2CCCC2)c1
,0.691,193,2640,,,Cc1cnc(N2CCSCC2)nc1N1CCSCC1

Structure (SMILES),aqueous solubility [µg/mL],MDR1-MDCK efflux ratio,"intrinsic clearance, human liver microsomes [mL/min/kg]","intrinsic clearance, rat liver microsomes [mL/min/kg]","fraction unbound, human plasma","fraction unbound, rat plasma"
N#Cc1cccc(-c2ccc(=O)n3c2[C@@H]2C[C@@H](CN(Cc4cccs4)C2)C3)c1,48.9,7.04,396,2000,,
